# Earlier results, collected in US8431806B2, “Liposomal formulations of anthracycline agents and cytidine analogs” (Celator Pharmaceuticals, Inc., priority 2004, dated 2013).
# Details: in vivo
smiles,measurement,setting,value
COc1cccc2c1C(=O)c1c(O)c3c(c(O)c1C2=O)C[C@@](O)(C(C)=O)C[C@@H]3O[C@H]1C[C@H](N)[C@H](O)[C@H](C)O1 [Daunorubicin],half-life for elimination,,19 h
same,oral absorption,po,low
